Reference: patent publication US20120088759A1, “THIAZOLIDIN-4-ONE AND [1,3]-THIAZINAN-4-ONE COMPOUNDS AS OREXIN RECEPTOR ANTAGONISTS” (priority 2009, published 2012)

How the values were obtained:
[1] = target: T1, human orexin-1 receptor (Homo sapiens, UniProt O43613); assay: FLIPR intracellular calcium assay, orexin receptor antagonistic activity (OX1); assay type: cell-based; conditions: CHO cells expressing human orexin-1 receptor; 3 nM orexin-A; normalized to on-plate reference; *n = geometric mean from n values
T1 construct: expressed in transfected cells; host or cells: CHO (Chinese hamster ovary) cells, kept under G418
T1 sequence (O43613 1-425): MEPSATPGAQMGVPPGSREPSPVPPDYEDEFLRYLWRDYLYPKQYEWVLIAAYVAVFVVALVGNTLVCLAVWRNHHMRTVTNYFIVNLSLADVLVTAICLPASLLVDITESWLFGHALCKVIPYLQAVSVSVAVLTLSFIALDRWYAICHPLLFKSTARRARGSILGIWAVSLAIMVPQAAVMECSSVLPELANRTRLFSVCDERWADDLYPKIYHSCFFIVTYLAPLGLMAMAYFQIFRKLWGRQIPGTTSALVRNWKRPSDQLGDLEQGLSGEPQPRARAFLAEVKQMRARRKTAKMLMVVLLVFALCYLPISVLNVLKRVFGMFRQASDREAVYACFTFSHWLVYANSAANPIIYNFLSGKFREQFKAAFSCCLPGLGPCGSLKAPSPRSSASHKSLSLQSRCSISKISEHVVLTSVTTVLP
Procedure: (§1) The orexin receptor antagonistic activity of the compounds of formula (I) is determined in accordance with the following experimental method.
(§2) Chinese hamster ovary (CHO) cells expressing the human orexin-1 receptor and the human orexin-2 receptor, respectively, are grown in culture medium (Ham F-12 with L-Glutamine) containing 300 μg/ml G418, 100 U/ml penicillin, 100 μg/ml streptomycin and 10% heat inactivated fetal calf serum (FCS). The cells are seeded at 20′000 cells/well into 384-well black clear bottom sterile plates (Greiner). The seeded plates are incubated overnight at 37° C. in 5% CO2.
(§3) Human orexin-A as an agonist is prepared as 1 mM stock solution in MeOH:water (1:1), diluted in HBSS containing 0.1% bovine serum albumin (BSA), NaHCO3: 0.375 g/l and 20 mM HEPES for use in the assay at a final concentration of 3 nM.
(§4) Antagonists are prepared as 10 mM stock solution in DMSO, then diluted in 384-well plates using DMSO followed by a transfer of the dilutions into in HBSS containing 0.1% bovine serum albumin (BSA), NaHCO3: 0.375 g/l and 20 mM HEPES. On the day of the assay, 50 μl of staining buffer (HBSS containing 1% FCS, 20 mM HEPES, NaHCO3: 0.375 g/l, 5 mM probenecid (Sigma) and 3 μM of the fluorescent calcium indicator fluo-4 AM (1 mM stock solution in DMSO, containing 10% pluronic) is added to each well. The 384-well cell-plates are incubated for 50 min at 37° C. in 5% CO2 followed by equilibration at rt for 30-120 min before measurement.
(§5) Within the Fluorescent Imaging Plate Reader (FLIPR Tetra, Molecular Devices), antagonists are added to the plate in a volume of 10 μl/well, incubated for 10 min and finally 10 μl/well of agonist is added. Fluorescence is measured for each well at 1 second intervals, and the height of each fluorescence peak is compared to the height of the fluorescence peak induced by 3 nM orexin-A with vehicle in place of antagonist. For each antagonist, the IC50 value (the concentration of compound needed to inhibit 50% of the agonistic response) is determined and normalized using the obtained IC50 value of a on-plate reference compound. Optimized conditions were achieved by adjustment of pipetting speed and cell splitting regime. The calculated IC50 values of the compounds may fluctuate depending on the daily cellular assay performance. Fluctuations of this kind are known to those skilled in the art.

[2] = target: T2, human orexin-2 receptor (Homo sapiens, UniProt O43614); assay: FLIPR intracellular calcium assay, orexin receptor antagonistic activity (OX2); assay type: cell-based; conditions: CHO cells expressing human orexin-2 receptor; 3 nM orexin-A; normalized to on-plate reference; *n = geometric mean from n values
T2 construct: expressed in transfected cells; host or cells: CHO (Chinese hamster ovary) cells, kept under G418
T2 sequence (O43614 1-444): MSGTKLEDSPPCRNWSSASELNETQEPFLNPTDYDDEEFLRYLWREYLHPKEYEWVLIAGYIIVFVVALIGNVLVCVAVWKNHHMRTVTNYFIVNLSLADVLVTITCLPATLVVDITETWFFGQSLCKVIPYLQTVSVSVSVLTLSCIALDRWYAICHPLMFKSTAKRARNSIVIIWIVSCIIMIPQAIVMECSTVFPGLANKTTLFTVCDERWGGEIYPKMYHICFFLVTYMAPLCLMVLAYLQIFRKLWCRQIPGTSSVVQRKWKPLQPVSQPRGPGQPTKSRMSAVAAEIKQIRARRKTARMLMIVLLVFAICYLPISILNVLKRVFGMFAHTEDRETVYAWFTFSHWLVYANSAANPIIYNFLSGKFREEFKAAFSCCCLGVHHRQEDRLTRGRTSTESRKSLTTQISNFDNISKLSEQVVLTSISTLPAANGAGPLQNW
Procedure: as §1, §2, §3, §4, §5

[3] = tested on: rat; conditions: rat model; cited from earlier work
[4] = tested on: rat; conditions: cited from earlier work
[5] = tested on: rat; conditions: cited from earlier work; remark: listed apart in the source

CCOc1ccccc1C1SCC(=O)N1Cc1cccc(OC(F)(F)F)c1 (stereo not drawn) [Example 81, 2-(2-Ethoxy-phenyl)-3-(3-trifluoromethoxy-benzyl)-thiazolidin-4-one]
IC50 [1]: 2290 nM | IC50 [2]: 13 nM

CCOc1ccccc1C1SCC(=O)N1Cc1ccc2c(c1)OCCO2 (stereo not drawn) [Example 72, 3-(2,3-Dihydro-benzo[1,4]dioxin-6-ylmethyl)-2-(2-ethoxy-phenyl)-thiazolidin-4-one]
IC50 [1]: 778 nM | IC50 [2]: 115 nM

COc1cccc(OC)c1C1SCC(=O)N1Cc1ccc(Oc2cc(C)ccn2)cc1 (stereo not drawn) [Example 284, 2-(2,6-Dimethoxy-phenyl)-3-[4-(4-methyl-pyridin-2-yloxy)-benzyl]-thiazolidin-4-one]
IC50 [1]: 344 nM | IC50 [2]: 7 nM

COc1cccc(OC)c1C1SCC(=O)N1Cc1ccc2ccccc2c1 (stereo not drawn) [Example 8, 2-(2,6-Dimethoxy-phenyl)-3-naphthalen-2-ylmethyl-thiazolidin-4-one]
IC50 [1]: 83 nM | IC50 [2]: 23 nM

COc1ccc2c(c1C1SCC(=O)N1Cc1ccc(OC(F)(F)F)cc1)OCO2 (stereo not drawn) [Example 12, 2-(5-Methoxy-benzo[1,3]dioxol-4-yl)-3-(4-trifluoromethoxy-benzyl)-thiazolidin-4-one]
IC50 [1]: 310 nM | IC50 [2]: 11 nM

CCOc1ccc(CN2C(=O)CSC2c2c(OC)cccc2OC)cc1 (stereo not drawn) [Example 6, 2-(2,6-Dimethoxy-phenyl)-3-(4-ethoxy-benzyl)-thiazolidin-4-one]
IC50 [1]: 140 nM | IC50 [2]: 24 nM

2-[2-(2-Hydroxy-ethoxy)-6-methoxy-phenyl]-3-(4-isopropoxy-benzyl)-thiazolidin-4-on [Example 269]
IC50 [1]: 2060 nM | IC50 [2]: 25 nM

CCOc1ccccc1C1SCC(=O)N1Cc1ccc(F)c(F)c1 (stereo not drawn) [Example 65, 3-(3,4-Difluoro-benzyl)-2-(2-ethoxy-phenyl)-thiazolidin-4-one]
IC50 [1]: 1430 nM | IC50 [2]: 21 nM

COc1cccc(OC)c1C1SC(C)(C)C(=O)N1Cc1ccc2ccccc2c1 (stereo not drawn) [Example 176, 2-(2,6-Dimethoxy-phenyl)-5,5-dimethyl-3-naphthalen-2-ylmethyl-thiazolidin-4-one]
IC50 [1]: 20 nM | IC50 [2]: 295 nM

CCOc1ccc(CN2C(=O)CS(=O)(=O)C2c2c(OC)cccc2OC)cc1 (stereo not drawn) [Example 290, 2-(2,6-Dimethoxy-phenyl)-3-(4-ethoxy-benzyl)-1,1-dioxo-thiazolidin-4-one]
IC50 [1]: 375 nM | IC50 [2]: 21 nM

COc1cccc(OCCO)c1C1SCC(=O)N1Cc1ccc(OC(F)(F)F)cc1 (stereo not drawn) [Example 267, 2-[2-(2-Hydroxy-ethoxy)-6-methoxy-phenyl]-3-(4-trifluoromethoxy-benzyl)-thiazolidin-4-one]
IC50 [1]: 263 nM | IC50 [2]: 24 nM

CCOc1ccccc1CN1C(=O)CSC1c1c(OC)cccc1OC (stereo not drawn) [Example 101, 2-(2,6-Dimethoxy-phenyl)-3-(2-ethoxy-benzyl)-thiazolidin-4-one]
IC50 [1]: 488 nM | IC50 [2]: 51 nM

COc1cccc(OC)c1C1SCC(=O)N1Cc1ccc(-c2ccccc2)cc1 (stereo not drawn) [Example 203, 3-Biphenyl-4-ylmethyl-2-(2,6-dimethoxy-phenyl)-thiazolidin-4-one]
IC50 [1]: 1830 nM | IC50 [2]: 125 nM

COc1cccc(OC)c1C1SCC(=O)N1Cc1ccc(Oc2ccccc2)cc1 (stereo not drawn) [Example 7, 2-(2,6-Dimethoxy-phenyl)-3-(4-phenoxy-benzyl)-thiazolidin-4-one]
IC50 [1]: 244 nM | IC50 [2]: 13 nM

CCOc1ccc(CN2C(=O)C(C)SC2c2c(OC)cccc2OC)cc1 (stereo not drawn) [Example 13, 2-(2,6-Dimethoxy-phenyl)-3-(4-ethoxy-benzyl)-5-methyl-thiazolidin-4-one]
IC50 [1]: 244 nM | IC50 [2]: 43 nM

COc1cccc(OC)c1C1SCC(=O)N1Cc1ccc(Oc2cncnc2)cc1 (stereo not drawn) [Example 276, 2-(2,6-Dimethoxy-phenyl)-3-[4-(pyrimidin-5-yloxy)-benzyl]-thiazolidin-4-one]
IC50 [1]: 1590 nM | IC50 [2]: 121 nM

CNC(=O)[C@@H](c1ccccc1)N1CCc2cc(OC)c(OC)cc2[C@@H]1CCc1ccc(C(F)(F)F)cc1 [(2R)-2-{(1S)-6,7-dimethoxy-1-[2-(4-trifluoromethyl-phenyl)-ethyl]-3,4-dihydro-1H-isoquinolin-2-yl}-N-methyl-2-phenylacetamide]
memory function [3]: enhance memory function | activity in a rat model of post-traumatic stress disorder [4]: active | alertness, characterized by active wake and locomotion [5]: decrease alertness | time spent in both REM and NREM sleep [5]: dose-dependently increase

COc1ccc2nc(C)oc2c1C1SCC(=O)N1Cc1ccc(OC(F)(F)F)cc1 (stereo not drawn) [Example 23, 2-(6-Methoxy-2-methyl-benzooxazol-7-yl)-3-(4-trifluoromethoxy-benzyl)-thiazolidin-4-one]
IC50 [1]: 204 nM | IC50 [2]: 28 nM

COc1cc(C2SC(C)C(=O)N2Cc2nc3ccccc3[nH]2)ccc1OCc1ccccc1 (stereo not drawn) [Example 265, 3-(1H-Benzoimidazol-2-ylmethyl)-2-(4-benzyloxy-3-methoxy-phenyl)-5-methyl-thiazolidin-4-one]
IC50 [1]: 2630 nM | IC50 [2]: 533 nM

COc1cccc(OC)c1C1SCC(=O)N1Cc1ccc(Oc2ccccn2)cc1 (stereo not drawn) [Example 277, 2-(2,6-Dimethoxy-phenyl)-3-[4-(pyridin-2-yloxy)-benzyl]-thiazolidin-4-one]
IC50 [1]: 411 nM | IC50 [2]: 8 nM

COc1cccc(OC)c1C1SCC(=O)N1Cc1ccc(SC(F)(F)F)cc1 (stereo not drawn) [Example 139, 2-(2,6-Dimethoxy-phenyl)-3-(4-trifluoromethylsulfanyl-benzyl)thiazolidin-4-one]
IC50 [1]: 440 nM | IC50 [2]: 30 nM

COc1ccc2cccnc2c1C1SCC(=O)N1Cc1ccc(OC(F)(F)F)cc1 (stereo not drawn) [Example 24, 2-(7-Methoxy-quinolin-8-yl)-3-(4-trifluoromethoxy-benzyl)-thiazolidin-4-one]
IC50 [1]: 278 nM | IC50 [2]: 14 nM

COc1cccc(OC)c1C1SCC(=O)N1Cc1ccc(OC(C)C)cc1 (stereo not drawn) [Example 5, 2-(2,6-Dimethoxy-phenyl)-3-(4-isopropoxy-benzyl)-thiazolidin-4-one]
IC50 [1]: 169 nM | IC50 [2]: 16 nM
